Assay [1] concerns P. aeruginosa (1051575). Nature of the assay: Potentiation of the doxycycline activity at 2 μg/mL. The class given is cell-based, Pseudomonas aeruginosa. Conditions: in combination with doxycycline 2 μg/mL; 24 h, 37°.
Assay [2] concerns S. aureus ATCC25923. Nature of the assay: MIC determination by microplate dilution, S. aureus human strain. Conditions: Staphylococcus aureus, ATCC25923, Gram-positive, Mueller-Hinton medium, 24 h, 37° C. The class given is cell-based, Staphylococcus aureus. The procedure: (§1) 1) Preparation of the Preculture
(§2) A negative control (2 mL of sterile culture medium)
(§3) A positive control (1940 μL of culture medium+40 μL of DMSO+20 μL of bacterial suspension) from a thawed biological strain (the biological strains are stored at −80° C. in glycerol).
(§4) The tubes were incubated at 37° C. for 24 hours at 100 rpm.
(§5) The microorganisms were handled under a type L2 laboratory fume cupboard and, before any handling, a UV cycle was programmed and only sterile material was used. […] The chemical compounds to be tested were prepared in a DMSO/methanol mixture (50/50) at a concentration of 5 mg/mL.
(§6) 2) Preparation of the Microplate for the Determination of the Minimum Inhibitory Concentration (MIC)
(§7) After 24 hours of incubation, a measurement of the optical density was taken using a spectrophotometer at 600 nm, collecting 100 μL of the bacterial suspension diluted in 900 μL of the sterile culture medium. This test required the use of a 96-well plate and the required volume of the microbial suspension to be seeded was calculated for an OD corresponding to a value equal to 0.01 in each well. In this plate, the first line corresponded to the negative control (195 μL of sterile culture medium in each well), the second line to the positive control (seeded culture medium supplemented with 2% of DMSO), the third line was loaded twice with bacterial suspension, 8 μL of test product were placed in each well. Thereafter, a 0.5 cascade dilution was performed from this line.
(§8) The first column served as inhibition control. A sterile filter was then placed on the microplate, allowing the passage of gases but not of contaminants. The microplate was incubated at 37° C. under a humid atmosphere for 24 hours.
(§9) NB: The medium used is Mueller-Hinton (MH) medium for bacteria. All the tests were performed in duplicate.
(§10) 4) Reading of the Results
(§11) After incubation, the filter was replaced with a transparent film, and an OD reading was then taken in an iEMS plate spectrophotometer at 620 nm. Calculation of the minimum inhibitory concentration (MIC) was performed.

The test system of assay [3] is E. coli ATCC28922. Nature of the assay: MIC determination by microplate dilution, E. coli human strain. Type of assay: cell-based, Escherichia coli. Conditions: Escherichia coli, ATCC28922, Gram-negative, Mueller-Hinton medium, 24 h, 37° C. The procedure: as §1, §2, §3, §4, §5, §6, §7, §8, §9, §10, §11
Assay [4] deals with S. intermedius (1051997). Nature of the assay: MIC determination by microplate dilution, S. intermedius animal strain. Conditions: Staphylococcus intermedius, Gram-positive, Mueller-Hinton medium, 24 h, 37° C. The class given is cell-based, Staphylococcus intermedius. As for the experimental part: as §1, §2, §3, §4, §5, §6, §7, §8, §9, §10, §11
The test system of assay [5] is P. aeruginosa (1051575). Nature of the assay: MIC determination by microplate dilution, P. aeruginosa animal strain. Type of assay: cell-based, Pseudomonas aeruginosa. Conditions: Pseudomonas aeruginosa, Gram-negative, Mueller-Hinton medium, 24 h, 37° C. As for the experimental part:
as §1, §2, §3, §4, §5, §6, §7, §8, §9, §10, §11

Assay [6] relates to E. faecalis ATCC29212. Nature of the assay: MIC determination by microplate dilution, E. faecalis human strain. Type of assay: cell-based, Enterococcus faecalis. Conditions: Enterococcus faecalis, ATCC29212, Gram-positive, Mueller-Hinton medium, 24 h, 37° C. The procedure:
as §1, §2, §3, §4, §5, §6, §7, §8, §9, §10, §11

The subject of assay [7] is S. aureus (340). Nature of the assay: MIC determination by microplate dilution, S. aureus animal strain. The class given is cell-based, Staphylococcus aureus. Conditions: Staphylococcus aureus, Gram-positive, Mueller-Hinton medium, 24 h, 37° C. As for the experimental part: as §1, §2, §3, §4, §5, §6, §7, §8, §9, §10, §11
For assay [8], the system named is CHO-K1 cells. Nature of the assay: WST1 cytotoxicity test on CHO-K1 cells. Type of assay: cell-based, Chinese hamster. Conditions: Cricetulus griseus, CHO-K1, 24 h, read-out: IC50 (μg/mL) CHO. The procedure:
Test WST1 was used to measure the cytotoxic activity of the products. This is a colorimetric test which makes it possible to measure the viability and the degree of cell proliferation. It is based on cleavage of the colorless tetrazolium salts WST-1 (4-[3-(4-iodophenyl)-2-(4-nitrophenyl)-2H-5-tetrazolio]-1,3-benzene disulfonate) with mitochondrial dehydrogenases to the yellow-colored formazan derivative, which may be quantified by spectrophotometry at 420-480 nm.
The WST1 test was performed on Chinese hamster ovary cells. The CHO-K1 cells (ATCC, USA) are kept in culture on McCoy's 5A medium supplemented with 10% fetal calf serum, 2 mM of L-glutamine and a mixture of penicillin-streptomycin (100 U/ml: 10 μg/mL). The culture is incubated at 37° C. under an atmosphere enriched in CO2 (5%), and subcultured every two days.
The cells are transferred into 96-well plates (25 000 cells/mL) in whole McCoy's 5A medium, and maintained for 24 hours at 37° C. under a humid atmosphere enriched in CO2 (5%). Increasing concentrations of test products are added to the wells in double tests and 8 growth controls containing the cells in the medium alone are included in each series of tests. After 24 hours at 37° C. (5% CO2), the culture medium is removed, the cells are rinsed in phosphate buffer (PBS) and 50 μL of PBS containing 10% of reagent WST1 are added to each well. After 20 minutes of incubation at 37° C., the results are read by spectrophotometry at 450 nm.
The results are expressed in dose-response relationships, modeled by nonlinear regression analysis using the TableCurve software. The 50% inhibitory concentration (IC50) represents the concentration of product that is capable of reducing the cell viability by 50%.
For orientation: Tetrazolium assays rely on reduction of a dye to a coloured formazan, in cell work by metabolically active cells.

Assay [9] has as its system P. aeruginosa ATCC27853. Nature of the assay: MIC determination by microplate dilution, P. aeruginosa human strain. Type of assay: cell-based, Pseudomonas aeruginosa. Conditions: Pseudomonas aeruginosa, ATCC27853, Gram-negative, Mueller-Hinton medium, 24 h, 37° C. The procedure: as §1, §2, §3, §4, §5, §6, §7, §8, §9, §10, §11
Assay [10] relates to E. coli (1956). Nature of the assay: MIC determination by microplate dilution, E. coli animal strain. The settings on record: Escherichia coli, Gram-negative, Mueller-Hinton medium, 24 h, 37° C. The class given is cell-based, Escherichia coli. The procedure:
as §1, §2, §3, §4, §5, §6, §7, §8, §9, §10, §11

Converted amounts (≈) assume the structure as drawn.

A word on the MIC: it is the lowest concentration that inhibits growth of the organism. High values mean weaker potency, low ones greater potency.

On to `CC(C)OC(=O)CC[C@@H](C)[C@H]1CCC2C3CCC4C[C@@H](NCCCNCCCNCCCN)CC[C@]4(C)C3C[C@H](O)[C@@]21C` (stereo partly drawn) [Compound (1), isopropyl 3β-norsperminodeoxycholate], for which the “MIC - P. aeruginosa (1051575): content of compound of formula (I) to restore the doxycycline activity (at 2 μg/mL)” value (“MIC - P. aeruginosa (1051575): content” below) in [1] was 2 µg/mL. In addition, the MIC in [2] stood at 4 µg/mL (≈ 6.61 µM); in [3] it was 8 µg/mL (≈ 13.2 µM); in assay [4] it was 2 µg/mL (≈ 3.31 µM); in [5], 2 µg/mL (≈ 3.31 µM); in assay [6], 8 µg/mL (≈ 13.2 µM); in assay [7], 2 µg/mL (≈ 3.31 µM). Besides, the MIC in assay [9] worked out at 8 µg/mL (≈ 13.2 µM); in assay [10], 10 µg/mL (≈ 16.5 µM). Besides, in assay [8], the IC50 stood at 50 µg/mL (≈ 82.6 µM).
As to `CC(C)OC(=O)CC[C@@H](C)[C@H]1CCC2C3CCC4C[C@@H](NCCCNCCCN)CC[C@]4(C)C3C[C@H](O)[C@@]21C` (stereo partly drawn) [Compound (2), isopropyl 3β-norspermidinodeoxycholate], in assay [1], the “MIC - P. aeruginosa (1051575): content” value amounted to 3 µg/mL. For the same molecule, the MIC in assay [2] was determined as 3 µg/mL (≈ 5.48 µM); in assay [3], 14 µg/mL (≈ 25.6 µM); in assay [4], 3 µg/mL (≈ 5.48 µM); in assay [5], 14 µg/mL (≈ 25.6 µM); in [6], 14 µg/mL (≈ 25.6 µM); in assay [7] it was 3 µg/mL (≈ 5.48 µM). For the same molecule, the MIC was 14 µg/mL (≈ 25.6 µM) in [9] and 28 µg/mL (≈ 51.1 µM) in [10]. For the same molecule, the IC50 in [8] was determined as 60 µg/mL (≈ 110 µM).
As for `COC(=O)CC[C@@H](C)[C@H]1CCC2C3CCC4C[C@@H](NCCCNCCCNCCCN)CC[C@]4(C)C3C[C@H](O)[C@@]21C` (stereo partly drawn) [Compound (3), methyl 3β-norsperminodeoxycholate], the “MIC - P. aeruginosa (1051575): content” value in assay [1] came to 4 µg/mL. Also, the MIC in assay [2] turned out to be 2 µg/mL (≈ 3.47 µM); in assay [3], 29 µg/mL (≈ 50.3 µM); in assay [4], 1 µg/mL (≈ 1.73 µM); in [5] it was 2 µg/mL (≈ 3.47 µM); in [6] it was 2 µg/mL (≈ 3.47 µM); in assay [7], 4 µg/mL (≈ 6.93 µM). Further, the results for the MIC in assay [9] and in assay [10] were 2 µg/mL (≈ 3.47 µM) and 14 µg/mL (≈ 24.3 µM), respectively. Also, the IC50 in [8] stood at 6 µg/mL (≈ 10.4 µM).
Turning to `CC(C)OC(=O)CC[C@@H](C)[C@H]1CCC2C3C(C[C@H](O)[C@@]21C)[C@@]1(C)CC[C@H](NCCCNCCCNCCCN)CC1C[C@H]3O` (stereo partly drawn) [Compound (6), isopropyl 3β-norsperminocholate], in assay [1], the “MIC - P. aeruginosa (1051575): content” value worked out at 4 µg/mL. The MIC in assay [2] is 8 µg/mL (≈ 12.9 µM); in assay [3], 30 µg/mL (≈ 48.3 µM); in assay [4], 16 µg/mL (≈ 25.8 µM); in assay [5], 30 µg/mL (≈ 48.3 µM); in assay [6] it was greater than 60 µg/mL; in assay [7], 8 µg/mL (≈ 12.9 µM). The MIC in assay [9] and in assay [10] was 30 µg/mL (≈ 48.3 µM) throughout. For the same molecule, the IC50 in assay [8] worked out at 90 µg/mL (≈ 145 µM).
Turning to `COC(=O)CC[C@@H](C)[C@H]1CCC2C3C(CC[C@@]21C)[C@@]1(C)CC[C@H](NCCCNCCCNCCCN)CC1C[C@@H]3O` (stereo partly drawn) [Compound (12), methyl 3β-norsperminoursodeoxycholate], the “MIC - P. aeruginosa (1051575): content” value in assay [1] amounted to 2 µg/mL. Besides, the MIC in assay [2] turned out to be 7 µg/mL (≈ 12.1 µM); in assay [3], 4 µg/mL (≈ 6.93 µM); in assay [4], 1 µg/mL (≈ 1.73 µM); in assay [5] it was 7 µg/mL (≈ 12.1 µM); in assay [6] it was 30 µg/mL (≈ 52 µM); in assay [7] it was 4 µg/mL (≈ 6.93 µM). In addition, the MIC in [9] is 30 µg/mL (≈ 52 µM); in [10], 60 µg/mL (≈ 104 µM). Also, the IC50 in assay [8] was found to be 20 µg/mL (≈ 34.7 µM).

The record behind these values is patent US20190255073A1, “ESTERS OF 3-POLYAMINE DERIVATIVES OF BILE ACIDS FOR THE TREATMENT OF INFECTIONS” (VIRBAC, priority 2016, published 2019).
